According to patent US20260285853A1, “COMPOUNDS AND METHODS FOR MODULATING SPLICING” (REMIX THERAPEUTICS INC., priority 2023, published 2026):

Legend:
Format in all cases: cell-based
[1] = tested on: MYB mRNA; assay: Splicing RT-qPCR assay, canonical (CJ) and alternative (AJ) junction mRNA, K562 cells; settings: Homo sapiens, K562.3 cells, 24 hours; for AC50: read-out: MYB AJ (AC50, increase in AJ mRNA); for IC50: read-out: MYB CJ (IC50, decrease in CJ mRNA)
Protocol: (§1) Compounds described herein were used to modulate RNA transcript abundance in cells. The expression of a target mRNA was measured by detecting the formation of an exon-exon junction in the canonical transcript (CJ). A compound mediated exon-inclusion event was detected by observing an increase in formation of a new junction with an alternative exon (AJ). Real-time qPCR assays were used to detect these splicing switches and interrogate the potency of various compounds towards different target genes. A high-throughput real time quantitative PCR (RT-qPCR) assay was developed to measure these two isoforms of the mRNA (CJ and AJ) for exemplary genes, such as HTT, SMN2, and MYB, together with a control housekeeping gene, GAPDH or GUSB or PPIA, used for normalization. Briefly, the A673 or K562 cell line was treated with various compounds described herein (e.g., compounds of Formula (I)). After treatment, the levels of the HTT, MYB, or SMN2 mRNA targets were determined from each sample of cell lysate by cDNA synthesis followed by qPCR.
(§2) • Cells-to-CT 1-step kit: ThermoFisher A25602, Cells-to-CT lysis reagent: ThermoFisher 4391851C, TaqMan™ Fast Virus 1-Step Master Mix: ThermoFisher 4444436 • GAPDH: VIC-PL, ThermoFisher 4326317E (Assay: Hs99999905_m1)—used for K562/suspension cell lines • GUSB: VIC-PL, ThermoFisher 4326320E (Assay: Hs99999908_m1)—used for K562/suspension cell lines • PPIA: VIC-PL, ThermoFisher 4326316E (Assay: Hs99999904_m1)—used for A673/adherent cell lines
(§3) The K562 cell line was cultured in IMDM with 10% FBS. For K562, cells were diluted with full growth media and plated in either a 96-well plate (50,000 cells in 50 uL media per well) or a 384-well plate (8,000-40,000 cells in 45 uL media per well). An 11-point 3-fold serial dilution of the compounds were made in DMSO then diluted in media in an intermediate plate. Compound was transferred from the intermediate plate to the cell plate with the top dose at a final concentration of 10 uM in the well. Final DMSO concentration was kept at or below 0.25%. Final volume was 100 uL for 96-well plate and 50 uL for 384-well plate. The cell plate was then placed in an incubator at 37° C. with 5% CO2 for 24 hours.
(§4) The cells were then gently washed with 50 uL-100 uL cold PBS before proceeding to addition of lysis buffer. 30 uL-50 uL of room temperature lysis buffer with DNAse I (and optionally RNAsin) was added to each well. Cells were shaken/mixed thoroughly at room temperature for 5-10 minutes for lysis to take place and then 3 uL-5 uL of room temperature stop solution was added and wells were shaken/mixed again. After 2-5 minutes, the cell lysate plate was transferred to ice for RT-qPCR reaction setup. The lysates could also be frozen at −80° C. for later use.
(§5) In some cases, a direct lysis buffer was used. An appropriate volume of 3× lysis buffer (10 mM Tris, 150 mM NaCl, 1.5%-2.5% Igepal and 0.1-1 U/uL RNAsin, pH 7.4) was directly added to either K562 or A673 cells in media and mixed by pipetting 3 times. The plates were then incubated at room temperature with shaking/rocking for 20-50 minutes to allow for lysis to take place. After this time, the cell lysate plate was transferred to ice to set up for the RT-qPCR reactions. The lysates could also be frozen at −80° C. for later use.
(§6) To set up 10 uL RT-qPCR reactions, cell lysates were transferred to 384-well qPCR plates containing the master mix according to the table below. The plates were sealed, gently vortexed, and spun down before the run. The volumes were adjusted accordingly in some instances where the reaction was carried in 20 uL. The table below summarizes the components of the RT-qPCR reactions:
(§7) The RT-qPCR reaction was performed using a QuantStudio (ThermoFisher) under the following fast cycling conditions. All samples and standards were analyzed at least in duplicate. In some instances, bulk room temperature (RT) step of 5-10 minutes was completed for all plates before proceeding with qPCR. […]

[2] = tested on: HTT mRNA; assay: as above; settings: Homo sapiens, K562.3 cells, 24 hours; for AC50: read-out: HTT AJ (AC50, increase in AJ mRNA); for IC50: read-out: HTT CJ (IC50, decrease in CJ mRNA)
Protocol: as §1, §2, §3, §4, §5, §6, §7

[3] = tested on: SH-SY5Y (human neuroblastoma) cells; assay: Cell viability, Cell Titer Glo 2.0 assay; settings: read-out: Viability SHSY5Y.3 GI50
Outline: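 CellTiter-Glo 2.0 luminescence read-out after 72 h compound exposure (37 °C, 5% CO2); medium-only wells as blank. DMSO 0.1% final.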

[4] = tested on: MYB mRNA; assay: Splicing RT-qPCR assay (THP), Table 2A; settings: Table 2A (THP); for AC50: AJ mRNA increase, read-out: MYB AJ (increase in alternative junction mRNA, AC50); for IC50: CJ mRNA decrease, read-out: MYB CJ (decrease in canonical junction mRNA, IC50)
[5] = tested on: MYB mRNA; assay: Gene panel canonical junction qPCR assay, decrease in CJ mRNA, Table 3; settings: decrease in canonical junction (CJ) mRNA, gene panel qPCR, Table 3
Outline: (§8)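 Cells: A673 or K562; 24 h compound exposure, 37 °C, 5% CO2; 11-pt 3-fold series from 10 uM final; DMSO ≤0.25%. Lysate → cDNA → qPCR with junction-spanning primers/probe for CJ transcript. ΔCt vs housekeeper, ΔΔCt vs DMSO, 2^(−ΔΔCt), % response, 4PL → IC50.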

[6] = tested on: SMN2 mRNA; assay: as above; settings: decrease in canonical junction (CJ) mRNA, gene panel qPCR, Table 3
Outline: as §8

[7] = tested on: HTT mRNA; assay: as above; settings: decrease in canonical junction (CJ) mRNA, gene panel qPCR, Table 3
Outline: as §8

| Structure (SMILES) | AC50 [1] | IC50 [1] | AC50 [2] | IC50 [2] | GI50 [3] | AC50 [4] | IC50 [4] | IC50 [5] | IC50 [6] | IC50 [7] |
| --- | --- | --- | --- | --- | --- | --- | --- | --- | --- | --- |
| CCN[C@H]1CCN(c2cc(O)c(C(=O)Nc3cc(F)c4nc(C)cn4c3)c3nn(C)cc23)C1 [Compound 143, 4-[(3S)-3-(ethylamino)pyrrolidin-1-yl]-N-(8-fluoro-2-methyl-imidazo[1,2-a]pyridin-6-yl)-6-hydroxy-2-methyl-indazole-7-carboxamide] | < 100 nM | < 100 nM | 1000 to 10000 nM | 1000 to 10000 nM | 100 to 1000 nM | < 100 nM | < 100 nM | < 100 nM | < 100 nM | 1000 to 10000 nM |
| CN[C@@H]1CCN(c2ccc(C(=O)Nc3cc(F)c4nn(C)cc4c3)c3nn(C)cc23)C1 [Compound 140, N-(7-fluoro-2-methyl-indazol-5-yl)-2-methyl-4-[(3R)-3-(methylamino)pyrrolidin-1-yl]indazole-7-carboxamide] | 100 to 1000 nM | 100 to 1000 nM | 1000 to 10000 nM | 1000 to 10000 nM | 1000 to 10000 nM | 100 to 1000 nM | 100 to 1000 nM | 100 to 1000 nM | < 100 nM | 1000 to 10000 nM |
| CCNC1CCN(c2cc(F)c(C(=O)Nc3cc(F)c4nc(C)cn4c3)c3[nH]ncc23)CC1 [Compound 174, 4-[4-(ethylamino)-1-piperidyl]-6-fluoro-N-(8-fluoro-2-methyl-imidazo-[1,2-a]pyridin-6-yl)-1H-indazole-7-carboxamide] | 100 to 1000 nM | 100 to 1000 nM | 1000 to 10000 nM | 1000 to 10000 nM | 100 to 1000 nM | < 100 nM | 100 to 1000 nM | 100 to 1000 nM | < 100 nM | 1000 to 10000 nM |
| COC1CC(N[C@H]2CCN(c3ccc(C(=O)Nc4cc(F)c5nc(C)cn5c4)c4nn(C)cc34)C2)C1 (stereo partly drawn) [Compound 268, N-(8-fluoro-2-methyl-imidazo[1,2-a]pyridin-6-yl)-4-[(3S)-3-[(3-methoxy-cyclobutyl)amino]pyrrolidin-1-yl]-2-methyl-indazole-7-carboxamide] | 100 to 1000 nM | < 100 nM | 1000 to 10000 nM | 100 to 1000 nM | 100 to 1000 nM | < 100 nM | < 100 nM | < 100 nM | < 100 nM | 100 to 1000 nM |
| Cc1cn2cc(NC(=O)c3ccc(N4CCC5NCCC5C4)c4cn(C)nc34)cc(F)c2n1 (stereo not drawn) [Compound 169, N-(8-fluoro-2-methyl-imidazo[1,2-a]-pyridin-6-yl)-2-methyl-4-(octahydro-pyrrolo[3,2-c]pyridin-5-yl)indazole-7-carboxamide 2,2,2-trifluoroacetate] | 100 to 1000 nM | 100 to 1000 nM | 1000 to 10000 nM | 1000 to 10000 nM | 1000 to 10000 nM | < 100 nM | 100 to 1000 nM | 100 to 1000 nM | < 100 nM | 1000 to 10000 nM |
| Cc1cn2cc(NC(=O)c3ccc(N4CCNCC4)c4cc[nH]c34)cc(F)c2n1 [Compound 213, N-(8-fluoro-2-methyl-imidazo[1,2-a]-pyridin-6-yl)-4-piperazin-1-yl-1H-indole-7-carboxamide] | > 10000 nM | > 10000 nM | > 10000 nM | 1000 to 10000 nM | 1000 to 10000 nM | > 10000 nM | 1000 to 10000 nM | > 10000 nM | > 10000 nM | 1000 to 10000 nM |
| Cc1cn2cc(NC(=O)c3ccc(N4CCNCC4)c4nonc34)cc(F)c2n1 [Compound 263, N-(8-fluoro-2-methyl-imidazo[1,2-a]pyridin-6-yl)-4-piperazin-1-yl-2,1,3-benzoxadiazole-7-carboxamide] | 100 to 1000 nM | 100 to 1000 nM | 1000 to 10000 nM | 100 to 1000 nM | 1000 to 10000 nM | 100 to 1000 nM | 100 to 1000 nM | 100 to 1000 nM | < 100 nM | 100 to 1000 nM |
| Cc1cn2cc(NC(=O)c3ccc(N4CC[C@H](NCC(C)(C)O)C4)c4cn(C)nc34)cc(F)c2n1 [Compound 132, N-(8-fluoro-2-methyl-imidazo[1,2-a]pyridin-6-yl)-4-[(3S)-3-[(2-hydroxy-2-methylpropyl)amino]-pyrrolidin-1-yl]-2-methyl-indazole-7-carboxamide] | 100 to 1000 nM | 100 to 1000 nM | > 10000 nM | 1000 to 10000 nM | 1000 to 10000 nM | 100 to 1000 nM | 100 to 1000 nM | 100 to 1000 nM | < 100 nM | 1000 to 10000 nM |
| COc1c(NC(=O)c2ccc(N3CCNCC3)c3cc[nH]c23)cn2cc(C)nc2c1F [Compound 212, N-(8-fluoro-7-methoxy-2-methyl-imidazo-[1,2-a]pyridin-6-yl)-4-piperazin-1-yl-1H-indole-7-carboxamide] | > 10000 nM | 1000 to 10000 nM | > 10000 nM | > 10000 nM | 1000 to 10000 nM | > 10000 nM | > 10000 nM | 1000 to 10000 nM | 1000 to 10000 nM | > 10000 nM |
